These molecules were tested against T1, His tagged recombinant human tissue transglutaminase (His6-rh-TG2) (Homo sapiens, UniProt P21980) (assay: Inactivation of human tissue transglutaminase, fluorescence assay with Abz-APE(CAD-DNP)QEA-OH). Conditions: substrate Abz-APE(CAD-DNP)QEA-OH, 37° C., pH=7.5.
T1 construct: purchased Zedira T002
T1 sequence (P21980 1-687): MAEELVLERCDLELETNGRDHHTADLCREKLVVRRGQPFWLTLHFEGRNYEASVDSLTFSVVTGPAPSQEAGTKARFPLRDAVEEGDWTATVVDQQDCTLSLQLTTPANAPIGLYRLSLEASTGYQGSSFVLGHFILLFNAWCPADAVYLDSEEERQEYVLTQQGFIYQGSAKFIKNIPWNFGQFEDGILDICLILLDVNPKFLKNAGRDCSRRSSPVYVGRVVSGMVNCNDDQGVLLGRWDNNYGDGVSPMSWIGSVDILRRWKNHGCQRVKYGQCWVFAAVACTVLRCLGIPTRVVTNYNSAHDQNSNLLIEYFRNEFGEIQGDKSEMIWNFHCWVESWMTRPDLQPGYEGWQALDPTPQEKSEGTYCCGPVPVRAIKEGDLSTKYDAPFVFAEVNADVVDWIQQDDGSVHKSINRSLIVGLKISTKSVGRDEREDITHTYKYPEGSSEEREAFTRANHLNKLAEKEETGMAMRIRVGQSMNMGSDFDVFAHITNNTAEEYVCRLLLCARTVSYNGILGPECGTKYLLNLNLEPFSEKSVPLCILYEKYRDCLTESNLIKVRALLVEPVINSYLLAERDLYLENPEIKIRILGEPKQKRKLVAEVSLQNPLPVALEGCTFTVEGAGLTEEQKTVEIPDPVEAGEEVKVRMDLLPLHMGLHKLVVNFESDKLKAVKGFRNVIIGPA
Assay type: biochemical
Protocol: General Method for Inactivation of Human Tissue Transglutaminase
250 μg lyophilized His tagged recombinant human tissue transglutaminase (His6-rh-TG2, Zedira product T002) are reconstituted by adding 150 μl water (resulting buffer 50 mM NaH2PO4, 150 mM NaCl, pH=8.0).
A 10 mM inhibitor stock solution in DMSO is prepared and is diluted with buffer (50 mM Tris-HCl, 10 mM CaCl2, 5 mM DTT, pH=7.5) each to the twentyfold of the concentration desired in the preparation (but at least 1/50 dilution resulting in a 2% DMSO concentration).
900 μl of an assay-solution consisting of 55.56 mM Tris, 11.11 mM CaCl2, 0.11% PEG8000, 5.56 mM DTT, 5.56 mM glycine methyl ester and 50 μM Abz-APE(CAD-DNP)QEA-OH, (Zedira product A102; patent No.: EP 1781807B1), pH=7.5 are added to a cuvette and heated in a measuring cell of a spectrophotometer to 37° C. 50 μl of the particular inhibitor solution are added to this solution (resulting in a concentration of less than 0.2% DMSO in the mixture).
7 μl of the transglutaminase solution reconstituted above are diluted with 51 μl buffer (50 mM Tris, 100 mM NaCl, 5 mM DTT, pH=7.5). 50 μl of this enzyme solution (10 μg His6-rhTG2) are added to the assay-solution containing the particular inhibitor concentration. It is incubated 5 min at 37° C. before measuring starts (λexc=313 nm and λem=418 nm, t=15 to 30 min).
The evaluation of the resulting enzyme activity is done using the slope of the straight line obtained by the increase in fluorescence.
To determine the non-inhibited enzyme activity, DMSO instead of inhibitor stock solution is used. IC50 values are determined by plotting the resulting enzyme activity against the logarithm of the inhibitor concentration. IC50 is defined as the concentration of inhibitor resulting in 50% of enzyme activity.

Row | SMILES | IC50 [nM]
1 | CCOC(=O)/C=C/CC[C@H](NC(C)=O)C(=O)Nc1cccn(CC(=O)NCCN(CC)CC)c1=O [A25, (S,E)-Ethyl 6-acetamido-7-(1-(2-(2-(diethylamino)ethylamino)-2-oxoethyl)-2-oxo-1,2-dihydropyridin-3-ylamino)-7-oxohept-2-enoate] | 4800
2 | CCOC(=O)/C=C/CC[C@H](NC(=O)CCC(=O)O)C(=O)Nc1cccn(CC(=O)NCCN(CC)CC)c1=O [A26, (S,E)-4-(1-(1-(2-(2-(Diethylamino)ethylamino)-2-oxoethyl)-2-oxo-1,2-dihydropyridin-3-ylamino)-7-ethoxy-1,7-dioxohept-5-en-2-ylamino)-4-oxobutanoic acid] | 5400
3 | CCOC(=O)/C=C/CC[C@H](NC(C)=O)C(=O)Nc1cccn(CC(=O)NCCN(C)C)c1=O [A27, (S,E)-Ethyl 6-acetamido-7-(1-(2-(2-(dimethylamino)ethylamino)-2-oxoethyl)-2-oxo-1,2-dihydropyridin-3-ylamino)-7-oxohept-2-enoate] | 5200
4 | CCOC(=O)/C=C/CC[C@H](NC(=O)CCC(=O)O)C(=O)Nc1cccn(CC(=O)N[C@@H](CC(C)C)C(=O)OC)c1=O [A32, 4-((S,E)-7-Ethoxy-1-(1-(2-((S)-1-methoxy-4-methyl-1-oxopentan-2-ylamino)-2-oxoethyl)-2-oxo-1,2-dihydropyridin-3-ylamino)-1,7-dioxohept-5-en-2-ylamino)-4-oxobutanoic acid] | 194
5 | CCOC(=O)/C=C/CC[C@H](NC(=O)CCC(=O)O)C(=O)Nc1cccn(CC(=O)N[C@H](CC(C)C)C(=O)OC)c1=O [A34, 4-((S,E)-7-Ethoxy-1-(1-(2-((R)-1-methoxy-4-methyl-1-oxopentan-2-ylamino)-2-oxoethyl)-2-oxo-1,2-dihydropyridin-3-ylamino)-1,7-dioxohept-5-en-2-ylamino)-4-oxobutanoic acid] | 640
6 | CCOC(=O)/C=C/CC[C@H](NC(=O)CCC(=O)O)C(=O)Nc1cccn(CC(=O)N[C@H](C(=O)OC)[C@H](C)CC)c1=O [A36, 4-((S,E)-7-Ethoxy-1-(1-(2-((2S,3R)-1-methoxy-3-methyl-1-oxopentan-2-ylamino)-2-oxoethyl)-2-oxo-1,2-dihydropyridin-3-ylamino)-1,7-dioxohept-5-en-2-ylamino)-4-oxobutanoic acid] | 88
7 | CCOC(=O)/C=C/CC[C@H](NC(C)=O)C(=O)Nc1cccn(CC(=O)NCCC(C)(C)C)c1=O [A39, (S,E)-Ethyl 6-acetamido-7-(1-(2-(3,3-dimethylbutylamino)-2-oxoethyl)-2-oxo-1,2-dihydropyridin-3-ylamino)-7-oxohept-2-enoate] | 115
8 | CCOC(=O)/C=C/CC[C@H](NC(C)=O)C(=O)Nc1cccn(CC(=O)N[C@@H](CC(C)(C)C)C(=O)OC)c1=O [A40, (S,E)-Ethyl 6-acetamido-7-(1-(2-((S)-1-methoxy-4,4-dimethyl-1-oxopentan-2-ylamino)-2-oxoethyl)-2-oxo-1,2-dihydropyridin-3-ylamino)-7-oxohept-2-enoate] | 131
9 | CCOC(=O)/C=C/CC[C@H](NC(=O)CCC(=O)O)C(=O)Nc1cccn(CC(=O)N2CCC(C(F)(F)F)CC2)c1=O [A45, (S,E)-4-(7-Ethoxy-1,7-dioxo-1-(2-oxo-1-(2-oxo-2-(4-(trifluoromethyl)piperidin-1-yl)ethyl)-1,2-dihydropyridin-3-ylamino)hept-5-en-2-ylamino)-4-oxobutanoic acid] | 1230
10 | CCOC(=O)/C=C/CC[C@H](NC(=O)CCC(=O)O)C(=O)Nc1cccn(CC(=O)NCCc2cccs2)c1=O [A47, (S,E)-4-(7-Ethoxy-1,7-dioxo-1-(2-oxo-1-(2-oxo-2-(2-(thiophen-2-yl)ethylamino)ethyl)-1,2-dihydropyridin-3-ylamino)hept-5-en-2-ylamino)-4-oxobutanoic acid] | 480
11 | CCOC(=O)/C=C/CC[C@H](NC(C)=O)C(=O)Nc1cccn(CC(=O)NCC2CCN(CC)CC2)c1=O [A48, (S,E)-Ethyl 6-acetamido-7-(1-(2-((1-ethylpiperidin-4-yl)methylamino)-2-oxoethyl)-2-oxo-1,2-dihydropyridin-3-ylamino)-7-oxohept-2-enoate] | 1700
12 | CCOC(=O)/C=C/CC[C@H](NC(=O)CCC(=O)O)C(=O)Nc1cccn(CC(=O)NCCN2CCNC2=O)c1=O [A49, (S,E)-4-(7-Ethoxy-1,7-dioxo-1-(2-oxo-1-(2-oxo-2-(2-(2-oxoimidazolidin-1-yl)ethylamino)ethyl)-1,2-dihydropyridin-3-ylamino)hept-5-en-2-ylamino)-4-oxobutanoic acid] | 1800
13 | CCOC(=O)/C=C/CC[C@H](NC(C)=O)C(=O)Nc1cccn(CC(=O)NCC(C)CC)c1=O (stereo partly drawn) [A50, (6S,E)-Ethyl 6-acetamido-7-(1-(2-(2-methylbutylamino)-2-oxoethyl)-2-oxo-1,2-dihydropyridin-3-ylamino)-7-oxohept-2-enoate] | 119

More lines, in order of falling IC50, values ahead:

Row | IC50 [nM] | SMILES
14 | 3300 | CCOC(=O)/C=C/CC[C@H](NC(C)=O)C(=O)Nc1cccn(CC(=O)NCCN2CCCC2)c1=O [A46, (S,E)-Ethyl 6-acetamido-7-oxo-7-(2-oxo-1-(2-oxo-2-(2-(pyrrolidin-1-yl)ethylamino)ethyl)-1,2-dihydropyridin-3-ylamino)hept-2-enoate]
15 | 493 | CCOC(=O)/C=C/CC[C@H](NC(C)=O)C(=O)Nc1cccn(CC(=O)N[C@H](CC(C)C)C(=O)OC)c1=O [A33, (S,E)-Ethyl 6-acetamido-7-(1-(2-((R)-1-methoxy-4-methyl-1-oxopentan-2-ylamino)-2-oxoethyl)-2-oxo-1,2-dihydropyridin-3-ylamino)-7-oxohept-2-enoate]
16 | 340 | CCOC(=O)/C=C/CC[C@H](NC(=O)CCC(=O)O)C(=O)Nc1cccn(CC(=O)NCc2ccc(C(F)(F)F)cc2)c1=O [A37, (S,E)-4-(7-Ethoxy-1,7-dioxo-1-(2-oxo-1-(2-oxo-2-(4-(trifluoromethyl)benzylamino)ethyl)-1,2-dihydropyridin-3-ylamino)hept-5-en-2-ylamino)-4-oxobutanoic acid]
17 | 240 | CCOC(=O)/C=C/CC[C@H](NC(=O)CCC(=O)O)C(=O)Nc1cccn(CC(=O)NCc2ccccc2C(F)(F)F)c1=O [A44, (S,E)-4-(7-Ethoxy-1,7-dioxo-1-(2-oxo-1-(2-oxo-2-(2-(trifluoromethyl)benzylamino)ethyl)-1,2-dihydropyridin-3-ylamino)hept-5-en-2-ylamino)-4-oxobutanoic acid]
18 | 175 | CCOC(=O)/C=C/CC[C@H](NC(=O)CCC(=O)O)C(=O)Nc1cccn(CC(=O)NCCC(C)(C)C)c1=O [A38, (S,E)-4-(1-(1-(2-(3,3-Dimethylbutylamino)-2-oxoethyl)-2-oxo-1,2-dihydropyridin-3-ylamino)-7-ethoxy-1,7-dioxohept-5-en-2-ylamino)-4-oxobutanoic acid]
19 | 166 | CCOC(=O)/C=C/CC[C@H](NC(=O)CCC(=O)O)C(=O)Nc1cccn(CC(=O)N[C@@H](CC(C)(C)C)C(=O)OC)c1=O [A41, 4-((S,E)-7-Ethoxy-1-(1-(2-((S)-1-methoxy-4,4-dimethyl-1-oxopentan-2-ylamino)-2-oxoethyl)-2-oxo-1,2-dihydropyridin-3-ylamino)-1,7-dioxohept-5-en-2-ylamino)-4-oxobutanoic acid]
20 | 145 | CCOC(=O)/C=C/CC[C@H](NC(=O)CCC(=O)O)C(=O)Nc1cccn(CC(=O)NCCC(CC)CC)c1=O [A43, (S,E)-4-(7-Ethoxy-1-(1-(2-(3-ethylpentylamino)-2-oxoethyl)-2-oxo-1,2-dihydropyridin-3-ylamino)-1,7-dioxohept-5-en-2-ylamino)-4-oxobutanoic acid]
21 | 124 | CCOC(=O)/C=C/CC[C@H](NC(C)=O)C(=O)Nc1cccn(CC(=O)N[C@@H](CC(C)C)C(=O)OC)c1=O [A31, (S,E)-Ethyl 6-acetamido-7-(1-(2-((S)-1-methoxy-4-methyl-1-oxopentan-2-ylamino)-2-oxoethyl)-2-oxo-1,2-dihydropyridin-3-ylamino)-7-oxohept-2-enoate]

— patent US9434763B2, “Derivatives of pyridinone as inhibitors for tissue transglutaminase” (ZEDIRA GMBH, priority 2012, dated 2016)
